This is an account of results in patent US7211566B2 (Universite De Sherbrooke, priority 2003, dated 2007).

The target of one assay is T1, BKB2 receptor (Oryctolagus cuniculus, UniProt Q28642).
T1 construct: The rabbit jugular vein (a pure BKB2 receptor system); from tissue; host or cells: isolated rabbit jugular vein (rbJV)
T1 sequence (Q28642 1-367): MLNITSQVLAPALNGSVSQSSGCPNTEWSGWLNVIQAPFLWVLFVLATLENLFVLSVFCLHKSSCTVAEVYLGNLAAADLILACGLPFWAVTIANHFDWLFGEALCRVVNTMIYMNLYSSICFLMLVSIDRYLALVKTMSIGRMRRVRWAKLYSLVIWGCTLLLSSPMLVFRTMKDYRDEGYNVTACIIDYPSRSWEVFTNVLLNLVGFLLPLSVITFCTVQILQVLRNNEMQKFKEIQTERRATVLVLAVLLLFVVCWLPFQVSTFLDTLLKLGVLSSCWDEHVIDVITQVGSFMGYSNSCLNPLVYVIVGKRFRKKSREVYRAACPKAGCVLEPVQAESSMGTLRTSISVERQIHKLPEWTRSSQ
The experiment in a line: Isolated rabbit jugular vein (rbJV) organ bath, antagonist potency pA2. Type of assay: cell-based. Particulars: BK as agonist, read-out: Antagonist potencies (pA2) BKB2-R rbJV (converted). As for the experimental part:
(§1) Selected antagonists were tested for activities in three isolated organs: (1) the rabbit aorta (rbA), (2) the human umbilical vein (hUV) and (3) the rabbit jugular vein (rbJV).
(§2) All details regarding the procurements of human umbilical cords and rabbit vessels as well as, the procedures for preparing the isolated organs and the experimental protocols are described in these respective publications: rbA (Rioux et al. 1973, Can J Physiol Pharmacol 51, 114–121); hUV (Gobeil et al. 1996, Br J Pharmacol 118, 289–294), and rbJV (Gaudreau et al. 1981, Can J Physiol Pharmacol 59, 371–379).
(§3) The rabbit jugular vein (a pure BKB2 receptor system) was used to exclude any action of the new compounds on the BKB2 receptor and thus establish their selectivity. All tissues were treated with captopril (1 μM) to prevent the degradation of the peptidic agonists.
(§4) Repeated applications of a single and double concentration of BK (on rbJV,) or of desArg^9BK (rbA and hUV) were made in the absence and in presence of the various peptides to evaluate their apparent affinities as antagonists, in terms of pA2 (-log10 of the molar concentration of antagonist that reduces the effect of a double concentration of agonist to that of a single one) (Schild 1947, Br J Pharmacol 2, 189–206).

A further assay has as its target T2, BKB1 receptor (Oryctolagus cuniculus, UniProt P48748).
T2 construct: The rabbit aorta without endothelium (which contains only the BKB1 receptor); from tissue; host or cells: isolated rabbit aorta (rbA) without endothelium
T2 sequence (P48748 1-352): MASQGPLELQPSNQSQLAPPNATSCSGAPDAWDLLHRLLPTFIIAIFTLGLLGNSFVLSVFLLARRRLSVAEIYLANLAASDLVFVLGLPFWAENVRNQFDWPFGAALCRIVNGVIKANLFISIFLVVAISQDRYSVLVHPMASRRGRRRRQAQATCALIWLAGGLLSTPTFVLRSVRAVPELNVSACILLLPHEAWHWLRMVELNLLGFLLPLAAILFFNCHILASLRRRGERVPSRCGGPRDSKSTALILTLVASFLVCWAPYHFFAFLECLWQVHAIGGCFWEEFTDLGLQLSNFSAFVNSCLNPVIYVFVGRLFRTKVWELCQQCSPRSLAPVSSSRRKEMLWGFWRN
The experiment in a line: Isolated rabbit aorta (rbA) organ bath, antagonist potency pA2. Particulars: rabbit aorta without endothelium; mean ± SEM of 4–7 experiments; read-out: Antagonist potencies (pA2) BKB1-R rbA (converted). In kind it is cell-based. The procedure: as §1, §2
The rabbit aorta without endothelium (which contains only the BKB1 receptor) was used to determine the antagonistic activities of each compound.
as §3, §4

Square brackets hold non-standard residues; d marks the D form. Peptide text beside a SMILES is read from it. Oic = O=C(O)[C@@H]1C[C@@H]2CCCC[C@@H]2N1; d2Nal = N[C@H](Cc1ccc2ccccc2c1)C(=O)O; αMeF = C[C@](N)(Cc1ccccc1)C(=O)O; Orn = NCCC[C@H](N)C(=O)O

Consider `CC[C@H](C)[C@H](NC(=O)[C@@H](Cc1ccc2ccccc2c1)NC(=O)[C@H](CO)NC(=O)[C@](C)(Cc1ccccc1)NC(=O)CNC(=O)[C@@H]1CCCN1C(=O)[C@@H]1C[C@@H]2CCCC[C@@H]2N1C(=O)[C@H](CCCNC(=N)N)NC(=O)[C@H](CCCCN)NC(C)=O)C(=O)O` [Ac-Lys[Oic^2,(α-Me)Phe^5,D-βNal^7,Ile^8]desArg^9BK] (Ac-KR[Oic]PG[αMeF]S[d2Nal]I-OH), for which the Kb is > 1000 nM on BKB2 receptor and 3.16 nM at BKB1 receptor.

On to `CC[C@H](C)[C@H](NC(=O)[C@@H](Cc1ccc2ccccc2c1)NC(=O)[C@H](CO)NC(=O)[C@](C)(Cc1ccccc1)NC(=O)CNC(=O)[C@@H]1CCCN1C(=O)[C@@H]1C[C@@H]2CCCC[C@@H]2N1C(=O)[C@H](CCCNC(=N)N)NC(=O)[C@H](CCCN)NC(C)=O)C(=O)O` [compound c, Ac-Orn[Oic^2,(α-Me)Phe^5,D-βNal^7,Ile^8]desArg^9BK] (Ac-[Orn]R[Oic]PG[αMeF]S[d2Nal]I-OH), for which the Kb on BKB2 receptor is > 1000 nM; on BKB1 receptor, 2.29 nM.
